Structures can show the parent of a compound that is named as a salt. Marks after values point to notes of the source that are not given here.
Experiments:
Assay type in all cases: in vivo, broiler chicks
male Ross 308 chicks [1] = test: Carcass traits (breast weight, breast meat yield, abdominal fat pad weight); conditions: for Breast weight: bone-in; for Breast weight / Breast meat yield / Fat pad weight: phytase 500 FTU/kg, betaine 2.75 g/kg
Description: (§1) The composition and nutrient specifications of the three basal starter (1-16 days post-hatch) and finisher (17-37 days post-hatch) diets are shown in Table 1. An NSP-degrading enzyme (Econase XT) was included across all the wheat-based diets to reflect standard practice and the finisher diets contained 20 g/kg Celite as an acid insoluble ash dietary marker. The starter diets were fed as mash, while the finisher diets were steam-pelleted at a conditioning temperature of 85° C. The NC1 diets were the ‘phytase-modified’ diets with formulated with reductions of 1.4 g/kg Ca and 1.5 g/kg P in the starter diets, which mainly stemmed from the elimination of dicalcium phosphate. The corresponding reductions in the finisher diets were 1.2 g/kg Ca and 1.4/kg P. The NC2 diets were the ‘betaine-modified’ diets in which energy density, methionine and choline levels were reduced mainly by lower inclusion levels of canola oil and synthetic methionine and the elimination of choline chloride relative to the PC diets. The energy densities were reduced from 12.55 to 12.24 MJ/kg in the starter diets and from 12.97 to 12.66 MJ/kg in the finisher diets. Methionine levels were reduced from 4.44 to 3.19 g/kg in the starter diets and from 4.18 to 2.93 g/kg in the finisher diets. Exogenous phytase (Quantum® Blue; AB Vista) was included in the relevant diets at 100 g per tonne or 500 FTU/kg phytase activity and, similarly, betaine HCl (Hi Beta″, 970 g/kg betaine hydrochloride; Rural Chemical Industries) was included in the diets at 2.75 g/kg.
(§2) The parameters evaluated included growth performance (weight gains, feed intakes, feed conversion ratios; FCR) from 1 to 16, 17 to 37 and 1 to 37 days post-hatch, 1 to 37 days weight gain-corrected FCR, mortality/cull rates, percentage toe ash, nitrogen (N) excretion and nutrient utilisation. Nutrient utilisation included apparent metabolisable energy (AME), expressed as both MJ/kg and MJ/day, N retention and N-corrected AME (AMEn). Also, breast weights in absolute and relative (% yield) terms, abdominal fat pad weights and pH of gizzard contents were determined. However, for reasons of practical expediency, absolute breast weights were determined on a ‘bone-in’ basis from birds that had not been de-feathered and this approach inflates both the absolute weight and yield; nevertheless, the data remains indicative. The experimental data was obtained and calculated via standard procedures followed by the Poultry Research Foundation. While the various procedures are not detailed in this report the majority of them have been described in detail (Selle et al., 2003b) previously.
(§3) The experimental data was statistically analysed as a 3×2×2 factorial array of dietary treatments. That is diet type (PC, NC1, NC2), without and with the addition of phytase, without and with the addition of betaine HCl. Each of the 12 dietary treatments was offered to 8 replicate cages of 6 birds or a total of 96 cages and 576 birds (male Ross 308 chicks). The IBM® SPSS® Statistics 20 program was used to analyse experimental data and the study complied with specific guidelines of the Animal Ethics Committee of Sydney University.

male Ross 308 chicks [2] = test: N excretion during total excreta collection period; conditions: for N excretion: total excreta collection period, phytase 500 FTU/kg, betaine 2.75 g/kg
Description: as §1, §2, §3

male Ross 308 chicks [3] = test: Growth performance of broilers (weight gain, feed intake, feed conversion); conditions: for Feed efficiency: feed conversion ratio; for Feed efficiency / Feed intake / Weight gain / Gain-corrected FCR: phytase 500 FTU/kg, betaine 2.75 g/kg
Description: as §1, §2, §3

male Ross 308 chicks [4] = test: Bone mineralisation (percentage toe ash); conditions: phytase 500 FTU/kg, betaine 2.75 g/kg
Description: as §1, §2
The experimental data was statistically analysed as a 3×2×2 factorial array of dietary treatments. […]

[5] = main effect across diets, hydrochloride
[6] = main effect across diets, listed as Betaine HCl, hydrochloride
[7] = main effect across diets, listed as betaine HCl, hydrochloride
[8] = NC1 diets, 1 to 16 days post-hatch
[9] = NC1 diets, 1 to 37 days post-hatch
[10] = NC1 diets, 17 to 37 days post-hatch
[11] = NC2 diets, 1 to 16 days post-hatch
[12] = NC2 diets, 1 to 37 days post-hatch
[13] = NC2 diets, 17 to 37 days post-hatch
[14] = PC diets, 1 to 16 days post-hatch
[15] = PC diets, 1 to 37 days post-hatch
[16] = PC diets, 17 to 37 days post-hatch
[17] = main effect across diets, 1 to 16 days post-hatch
[18] = main effect across diets, 1 to 37 days post-hatch
[19] = main effect across diets, 17 to 37 days post-hatch
[20] = main effect, 17 to 37 days (finisher phase)

## C[N+](C)(C)CC(=O)O [Betaine, betaine hydrochloride]
Male Ross 308 chicks [1]; NC1 diets
  Breast weight: 526 g/bird
  Breast meat yield: 25.7%
  Fat pad weight: 14.7 g/bird
Male Ross 308 chicks [1]; NC2 diets
  Breast weight: 625 g/bird
  Breast meat yield: 26.9%
  Fat pad weight: 18.4 g/bird
Male Ross 308 chicks [1]; PC diets
  Breast weight: 660 g/bird
  Breast meat yield: 28.3%
  Fat pad weight: 17.3 g/bird
Male Ross 308 chicks [1]; across diet types
  Breast meat yield, phytase x betaine interaction mean: 27.0%
  Fat pad weight, phytase x betaine interaction mean: 16.8 g/bird
Male Ross 308 chicks [1]; in the absence of phytase
  Decrease in fat pad weights by betaine HCl: 17.6%
Male Ross 308 chicks [1]; in the presence of phytase
  Increase in fat pad weights by betaine HCl: 8.67%
Male Ross 308 chicks [1]; main effect
  Increase in breast meat yield (relative): 1.91%
  Increase in breast yield: 0.5 percentage units
Male Ross 308 chicks [1]; [5]
  Breast weight: 624 g/bird
  Breast meat yield: 26.7^b %
  Fat pad weight: 19.1 g/bird
Male Ross 308 chicks [1]; main effect across diets, listed as betaine, hydrochloride
  Breast weight: no influence
Male Ross 308 chicks [1]; [6]
  Breast meat yield: 26.7%
Male Ross 308 chicks [1]; [7]
  Breast meat yield: 26.7%
  Fat pad weight: no effect
Male Ross 308 chicks [2]; NC1 diets
  N excretion: 37.30 g/bird
Male Ross 308 chicks [2]; NC2 diets
  Reduction of N excretion versus NC2 control diets: 7.03%
  N excretion: 42.47 g/bird
Male Ross 308 chicks [2]; PC diets
  N excretion: 40.34 g/bird
Male Ross 308 chicks [2]; main effect
  Reduction of N excretion: 7.69%
Male Ross 308 chicks [2]; [5]
  N excretion: 38.79^a g/bird
Male Ross 308 chicks [2]; [6]
  N excretion: 38.79 g/bird
Male Ross 308 chicks [2]; [7]
  N excretion: 38.79 g/bird
Male Ross 308 chicks [3]; 1 to 37 days, across diet types
  Weight gain, phytase x betaine interaction mean: 2202 g/bird
Male Ross 308 chicks [3]; 17 to 37 days, across diet types
  Weight gain, phytase x betaine interaction mean: 1797 g/bird
Male Ross 308 chicks [3]; 17 to 37 days, betaine HCl alone, across diet types
  Depression of weight gain versus non-supplemented diets: 7.70%
Male Ross 308 chicks [3]; [8]
  Feed efficiency: 1.414
  Feed intake: 556 g/bird
  Weight gain: 395 g/bird
Male Ross 308 chicks [3]; NC1 diets, 1 to 37 days
  Weight gain, two-way interaction mean (diet type x additive): 2437 g/bird
  Gain-corrected FCR: 1.858 g/g
Male Ross 308 chicks [3]; [9]
  Feed efficiency: 1.732
  Feed intake: 3478 g/bird
  Weight gain: 2012 g/bird
Male Ross 308 chicks [3]; NC1 diets, 1 to 37 days, two-way interaction
  Increase in weight gain on addition to diet: 0.61%
Male Ross 308 chicks [3]; NC1 diets, 17 to 37 days
  Weight gain, two-way interaction mean (diet type x additive): 1737 g/bird
Male Ross 308 chicks [3]; [10]
  Feed efficiency: 1.811
  Feed intake: 2923 g/bird
  Weight gain: 1618 g/bird
Male Ross 308 chicks [3]; [11]
  Feed efficiency: 1.394
  Feed intake: 523 g/bird
  Weight gain: 377 g/bird
Male Ross 308 chicks [3]; [12]
  Feed efficiency: 1.641
  Feed intake: 3728 g/bird
  Weight gain: 2272 g/bird
Male Ross 308 chicks [3]; NC2 diets, 1 to 37 days
  Gain-corrected FCR: 1.663 g/g
Male Ross 308 chicks [3]; NC2 diets, 1 to 37 days, two-way interaction
  Depression of weight gain on addition to diet: 5.29%
Male Ross 308 chicks [3]; [13]
  Feed efficiency: 1.691
  Feed intake: 3205 g/bird
  Weight gain: 1896 g/bird
Male Ross 308 chicks [3]; NC2 diets, 17 to 37 days, two-way interaction
  Depression of weight gain on addition to diet: 6.27%
Male Ross 308 chicks [3]; [14]
  Feed efficiency: 1.334
  Feed intake: 591 g/bird
  Weight gain: 444 g/bird
Male Ross 308 chicks [3]; [15]
  Feed efficiency: 1.601
  Feed intake: 3714 g/bird
  Weight gain: 2321 g/bird
Male Ross 308 chicks [3]; PC diets, 1 to 37 days
  Gain-corrected FCR: 1.604 g/g
Male Ross 308 chicks [3]; PC diets, 1 to 37 days, two-way interaction
  Depression of weight gain on addition to diet: 4.90%
Male Ross 308 chicks [3]; [16]
  Feed efficiency: 1.665
  Feed intake: 3123 g/bird
  Weight gain: 1878 g/bird
Male Ross 308 chicks [3]; PC diets, 17 to 37 days, two-way interaction
  Depression of weight gain on addition to diet: 6.35%
Male Ross 308 chicks [3]; main effect across diets, 1 to 16 days post-hatch, hydrochloride
  Feed efficiency: 1.380^b
Male Ross 308 chicks [3]; main effect across diets, 1 to 16 days post-hatch, listed as Betaine HCl, hydrochloride
  Feed efficiency: 1.380
Male Ross 308 chicks [3]; [17]
  Feed intake: 567 g/bird
  Weight gain: 413 g/bird
Male Ross 308 chicks [3]; main effect across diets, 1 to 37 days post-hatch, hydrochloride
  Feed efficiency: 1.647
Male Ross 308 chicks [3]; main effect across diets, 1 to 37 days post-hatch, listed as betaine HCl, hydrochloride
  Feed efficiency: no significant impact
Male Ross 308 chicks [3]; [18]
  Feed intake: 3756 g/bird
  Weight gain: 2288 g/bird
Male Ross 308 chicks [3]; main effect across diets, 1 to 37 days, hydrochloride
  Gain-corrected FCR: 1.663^a g/g
Male Ross 308 chicks [3]; main effect across diets, 1 to 37 days, listed as betaine HCl, hydrochloride
  Gain-corrected FCR: 1.663 g/g
Male Ross 308 chicks [3]; main effect across diets, 17 to 37 days post-hatch, hydrochloride
  Feed efficiency: 1.707^b
Male Ross 308 chicks [3]; main effect across diets, 17 to 37 days post-hatch, listed as betaine HCl, hydrochloride
  Feed efficiency: 1.707
Male Ross 308 chicks [3]; [19]
  Feed intake: 3189 g/bird
  Weight gain: 1875^a g/bird
Male Ross 308 chicks [3]; main effect, 1 to 37 days
  Depression of gain-corrected FCR: 3.42%
Male Ross 308 chicks [3]; [20]
  Depression of feed efficiency: 2.46%
  Depression of weight gain: 4.48%
Male Ross 308 chicks [3]; main effect, entire feeding period
  Depression of growth rates: 3.38%
Male Ross 308 chicks [3]; main effect, starter phase, 1 to 16 days post-hatch
  Improvement in feed efficiency (FCR): 3.77%
Male Ross 308 chicks [4]; NC1 diets
  Toe ash: 11.15%
Male Ross 308 chicks [4]; NC2 diets
  Toe ash: 12.29%
Male Ross 308 chicks [4]; PC diets
  Toe ash: 11.99%
Male Ross 308 chicks [4]; main effect across diets
  Toe ash: 12.07%

Source: patent US11974976B2, “Animal feeds and feed premixes containing betaine hydrochloride and a phytase” (Rural Chemical Industries (AUST) PTY LTD, priority 2013, dated 2024)
